Results on seven compounds are retold here after ChEMBL document CHEMBL3616372, “A novel sesquiterpene and three new phenolic compounds from the rhizomes of Acorus tatarinowii Schott” (Bioorg Med Chem Lett, 2015).

Holding throughout (format): cell-based
The target in assay [1] is Sodium-dependent serotonin transporter (Homo sapiens) (UniProt P31645). The assay is described as follows: Inhibition of human SERT expressed in HEK293 cells using 4-[4-(Dimethylamino)phenyl]-1-methyl pyridinium as substrate assessed as fluorescent intensity at 0.1 uM after 3 hrs relative to control.
The target is the same in assay [2]. Nature of the assay: Inhibition of human SERT expressed in HEK293 cells using 4-[4-(Dimethylamino)phenyl]-1-methyl pyridinium as substrate assessed as fluorescent intensity at 1 uM after 3 hrs relative to control.
The target is the same in assay [3]. Nature of the assay: Inhibition of human SERT expressed in HEK293 cells using 4-[4-(Dimethylamino)phenyl]-1-methyl pyridinium as substrate assessed as fluorescent intensity at 10 uM after 3 hrs relative to control.

Chain of Sodium-dependent serotonin transporter (Homo sapiens) (P31645 whole entry, looked up): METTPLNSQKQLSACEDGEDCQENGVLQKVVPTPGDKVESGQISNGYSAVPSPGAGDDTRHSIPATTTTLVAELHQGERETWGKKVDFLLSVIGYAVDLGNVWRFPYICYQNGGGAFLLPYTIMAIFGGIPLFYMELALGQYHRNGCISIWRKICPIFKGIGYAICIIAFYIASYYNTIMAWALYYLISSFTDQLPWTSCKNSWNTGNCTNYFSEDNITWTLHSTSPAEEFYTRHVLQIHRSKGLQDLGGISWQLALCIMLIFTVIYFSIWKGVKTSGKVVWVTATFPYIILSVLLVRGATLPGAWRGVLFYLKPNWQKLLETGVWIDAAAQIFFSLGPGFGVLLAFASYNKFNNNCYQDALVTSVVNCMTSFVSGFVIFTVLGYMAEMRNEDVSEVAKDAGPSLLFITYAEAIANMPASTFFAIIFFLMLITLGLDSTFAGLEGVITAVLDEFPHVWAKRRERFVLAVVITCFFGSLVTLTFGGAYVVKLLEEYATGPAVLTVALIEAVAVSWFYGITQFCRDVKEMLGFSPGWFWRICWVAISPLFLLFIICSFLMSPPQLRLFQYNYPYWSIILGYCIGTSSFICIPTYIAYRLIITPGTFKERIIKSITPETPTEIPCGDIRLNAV

As to `COC(=O)CCCNC(=O)/C=C/c1ccc(O)c(OC)c1`, the RFU in assay [1] worked out at 1.02; in assay [2], 1.07; in assay [3], 1.04.
The like results for `COC(=O)CCCNC(=O)/C=C\c1ccc(O)c(OC)c1` were, in that order, 1.04, 1.08 and 1.06.
The matching figures for `CC(C)C[C@]12C[C@]3(O)O[C@@]1(OC(=O)C[C@H]2C)[C@H](O)[C@]3(C)O`: 0.858, 0.883 and 0.928.
For `COc1cc([C@@H]2Oc3c(OC)cc(C(=O)O)cc3[C@H]2CO)ccc1O`, the RFU in assay [1] was found to be 0.984; in assay [2] it was 1.03; in assay [3], 1.06.
In the case of `CN1c2ccccc2C(NCCCCCCC(=O)O)c2ccc(Cl)cc2S1(=O)=O` (centres undefined), the RFU in assay [2] was determined as 1.11.
Turning to `COc1cc(C[C@@H](CO)c2cc(C(=O)O)cc(OC)c2O)ccc1O`, the RFU in assay [1] turned out to be 1.01; in assay [2], 0.997; in assay [3], 0.873.
`COc1cc([C@H]2Oc3c(OC)cc(C(=O)O)cc3[C@@H]2CO)ccc1O`: the RFU was determined as 1.04 in assay [1], 1.01 in assay [2] and 1.09 in assay [3].
